{"source": "paper PMC8615975", "about": "“Design of α/β-Hybrid Peptide Ligands of α4β1 Integrin Equipped with a Linkable Side Chain for Chemoselective Biofunctionalization of Microstructured Materials” (Biomedicines, 2021)", "key": {"α4β1 integrin [1]": {"target": "T1, α4β1 integrin (Homo sapiens, UniProt P05556+P13612)", "T1 construct": "Jurkat E6.1 cells (expressing α4β1) were maintained as a stationary suspension culture; host or cells: Jurkat E6.1", "T1 sequence (P13612 34-1032)": "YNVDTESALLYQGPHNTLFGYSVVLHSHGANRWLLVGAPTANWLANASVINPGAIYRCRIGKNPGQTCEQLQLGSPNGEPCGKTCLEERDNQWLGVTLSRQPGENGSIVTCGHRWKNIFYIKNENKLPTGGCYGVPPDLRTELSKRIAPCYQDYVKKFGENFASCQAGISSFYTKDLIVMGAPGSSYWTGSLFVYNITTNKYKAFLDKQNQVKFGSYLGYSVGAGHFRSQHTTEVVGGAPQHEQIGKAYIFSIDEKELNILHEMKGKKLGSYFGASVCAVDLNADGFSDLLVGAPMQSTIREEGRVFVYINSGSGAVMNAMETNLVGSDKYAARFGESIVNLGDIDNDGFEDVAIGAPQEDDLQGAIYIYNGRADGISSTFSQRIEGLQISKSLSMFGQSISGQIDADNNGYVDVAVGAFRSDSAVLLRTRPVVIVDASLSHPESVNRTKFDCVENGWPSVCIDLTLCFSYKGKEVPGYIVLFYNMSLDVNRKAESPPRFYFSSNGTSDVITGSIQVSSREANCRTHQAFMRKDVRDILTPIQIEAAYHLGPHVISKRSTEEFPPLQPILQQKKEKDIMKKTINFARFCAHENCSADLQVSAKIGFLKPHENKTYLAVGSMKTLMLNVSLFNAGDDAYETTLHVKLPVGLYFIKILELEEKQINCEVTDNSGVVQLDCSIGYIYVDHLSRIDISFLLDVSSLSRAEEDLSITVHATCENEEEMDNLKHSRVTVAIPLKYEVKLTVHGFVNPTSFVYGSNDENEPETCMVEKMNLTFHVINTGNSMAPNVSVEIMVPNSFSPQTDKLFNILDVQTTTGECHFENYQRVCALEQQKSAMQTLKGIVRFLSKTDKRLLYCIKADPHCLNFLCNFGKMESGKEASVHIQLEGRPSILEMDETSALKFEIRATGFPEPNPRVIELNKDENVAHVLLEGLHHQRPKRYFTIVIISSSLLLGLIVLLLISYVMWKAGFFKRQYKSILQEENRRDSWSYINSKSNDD", "T1 sequence (P05556 21-798)": "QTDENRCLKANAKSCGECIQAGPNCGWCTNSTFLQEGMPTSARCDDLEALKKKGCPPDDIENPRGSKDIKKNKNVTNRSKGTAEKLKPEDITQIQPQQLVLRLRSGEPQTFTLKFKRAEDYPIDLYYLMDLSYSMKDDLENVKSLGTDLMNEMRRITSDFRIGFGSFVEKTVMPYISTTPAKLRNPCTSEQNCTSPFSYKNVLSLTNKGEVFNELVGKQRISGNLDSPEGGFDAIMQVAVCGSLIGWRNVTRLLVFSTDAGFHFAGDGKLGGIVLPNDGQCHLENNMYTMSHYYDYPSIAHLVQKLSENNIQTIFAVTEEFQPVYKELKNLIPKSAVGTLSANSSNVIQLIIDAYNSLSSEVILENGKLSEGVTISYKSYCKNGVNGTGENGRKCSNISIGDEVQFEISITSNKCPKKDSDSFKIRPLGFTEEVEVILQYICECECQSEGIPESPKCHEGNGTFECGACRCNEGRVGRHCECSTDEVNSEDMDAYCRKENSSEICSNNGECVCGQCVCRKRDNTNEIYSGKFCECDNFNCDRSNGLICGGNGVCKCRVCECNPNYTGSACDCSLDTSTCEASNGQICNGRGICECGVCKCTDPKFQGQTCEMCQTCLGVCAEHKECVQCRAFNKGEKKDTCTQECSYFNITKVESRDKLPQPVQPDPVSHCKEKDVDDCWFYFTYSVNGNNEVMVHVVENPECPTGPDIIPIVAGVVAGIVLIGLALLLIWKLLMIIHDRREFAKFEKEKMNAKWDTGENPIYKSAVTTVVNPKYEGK", "assay": "Inhibition of α4β1 integrin-mediated Jurkat cell adhesion to FN", "assay_type": "cell-based", "settings": "for ability to modulate α4β1 integrin-mediated cell adhesion (in words): Jurkat cell adhesion to FN; for IC50: Jurkat cell adhesion to plates coated with FN (10 μg/mL), mean ± SD, three experiments in quadruplicate", "description": "All cell lines were purchased from the ATCC (Rockville, MD, USA). Jurkat E6.1 cells (expressing α4β1) were maintained as a stationary suspension culture in RPMI-1640 (Life Technologies, Carlsbad, CA, USA) supplemented with 2 mM glutamine and 10% FBS (fetal bovine serum). HEK293 cells were routinely cultured in EMEM (Lonza, Basel, Switzerland) enriched with 10% FBS, L-glutamine and nonessential amino acids. Cells were kept at 37 °C under a 5% CO2 humidified atmosphere.\nThe adhesion assays were performed as previously described. Briefly, black 96-well plates (Corning Costar, Celbio, Milan, Italy) were coated with FN (10 μg/mL). Cells were counted, stained with CellTracker green CMFDA (12.5 μM, 30 min at 37 °C, Life Technologies), and after three washes with 1% BSA (bovine serum albumin) in HBSS (Life Technologies) were preincubated with increasing concentrations of the new peptide ligands (10^−10–10^−4 M) or with the vehicle (methanol) for 30 min at 37 °C. Afterwards, cells were plated (500,000/well) on coated wells and incubated for 30 min at 37 °C. After three washes, adhered cells were lysed with 0.5% Triton X-100 in PBS (30 min at 4 °C) and fluorescence was measured (Ex485 nm/Em535 nm) in an EnSpire Multimode Plate Reader (PerkinElmer, Waltham, MA, USA).\nThe number of adherent cells was obtained by comparison with a standard curve prepared in the same plate using diverse concentrations of cells. Experiments were carried out in quadruplicate and repeated at least three times. Data analysis and IC50 values were calculated using GraphPad Prism 6.0 (GraphPad Software, San Diego, CA, USA)."}, "[2]": {"design": "method as in PMID 17523052, PMID 11682211", "settings": "heparinized blood, plasma and rat liver, lung and intestinal homogenates; cited from earlier work"}, "[3]": {"assay": "Enzymatic stability in mouse serum", "assay_type": "in vitro ADME", "settings": "37 °C, HPLC; for amount of intact peptide: after 3 h", "description": "Incubations were carried out at 37 °C. Aliquots of 20 µL were sampled over 180 min from the mixtures and the samples were diluted with 90 µL of glacial ACN for precipitating proteins. The mixtures were diluted with 90 µL of 0.5% AcOH and centrifuged (13,000× g, 15 min). The supernatants were collected and the amount of intact peptides was determined by RP HPLC. The experiments were performed in triplicate and repeated three times."}, "isolated α4β1 integrin": {"test_system": "isolated α4β1 integrin", "design": "method as in PMID 30051467", "settings": "read-out: IC50, affinity for the isolated α4β1 integrin; cited from earlier work"}, "[4]": {"design": "method as in PMID 30051467", "settings": "incubation in mouse serum; cited from earlier work"}, "α4β1 integrin [5]": {"test_system": "α4β1 integrin", "design": "method as in PMID 30051467", "settings": "VCAM-1; read-out: IC50, adhesion of α4β1 integrin-expressing cells to VCAM-1; cited from earlier work"}}, "note": "*1 amine or outer side, *2 acyl side, *3 side chain or, on linkers, in order; H or OH if unused. Where a SMILES comes first, the peptide text is derived from it. [ ]: non-standard residue; d: D form. The star is where a group is joined. X1 = O=C(Cc1ccc(N[*:1])cc1)[*:2]; NH(2-Me-phenyl) = Cc1ccccc1N*; CO = O=C([*:1])[*:2]"}
{"smiles": "CC(=O)N[C@H](CNC(=O)Cc1ccc(NC(=O)Nc2ccccc2C)cc1)C(=O)NCC(=O)O", "note": "[Compound 14, MPUPA-Dap(Ac)-Gly-OH]", "values": [{"measurement": "ability to modulate α4β1 integrin-mediated cell adhesion (in words)", "setting": "α4β1 integrin [1]", "value": "inactive"}, {"measurement": "IC50", "setting": "α4β1 integrin [1]", "value": "> 5", "unit": "µM"}]}
{"smiles": "Cc1ccccc1NC(=O)Nc1ccc(CC(=O)N[C@@H](CC(C)C)C(=O)N[C@@H](CC(=O)O)C(=O)N[C@H](C(=O)N2CCC[C@H]2C(=O)O)C(C)C)cc1", "note": "[BIO1211, MPUPA-Leu-Asp-Val-Pro-OH, reference compound] ({NH(2-Me-phenyl)-CO}-[X1]LDVP-OH)", "values": [{"measurement": "stability in physiological conditions (in words)", "setting": "[2]", "value": "poor stability"}, {"measurement": "initial amount still present", "setting": "[3]; after 1 h", "value": "about 10%"}]}
{"smiles": "Cc1ccccc1NC(=O)Nc1ccc(CC(=O)N[C@H](C)CC(=O)NCC(=O)O)cc1", "note": "[Compound 8, MPUPA-β^3-homoAla-Gly-OH]", "values": [{"measurement": "IC50", "setting": "α4β1 integrin [1]", "value": "> 5", "unit": "µM"}]}
{"smiles": "CCCNC(=O)[C@H](CC(=O)NCC(=O)O)NC(=O)Cc1ccc(NC(=O)Nc2ccccc2C)cc1", "note": "[Compound 11, MPUPA-isoAsp(NHPr)-Gly-OH]", "values": [{"measurement": "IC50", "setting": "α4β1 integrin [1]", "value": "> 5", "unit": "µM"}]}
{"smiles": "Cc1ccccc1NC(=O)Nc1ccc(CC(=O)N[C@@H](C)CC(=O)NCC(=O)O)cc1", "note": "[Compound 7, MPUPA-β^3-homoAla-Gly-OH]", "values": [{"measurement": "IC50", "setting": "α4β1 integrin [1]", "value": "4.06 ± 0.78", "unit": "µM"}]}
{"smiles": "CC(=O)N[C@@H](CNC(=O)Cc1ccc(NC(=O)Nc2ccccc2C)cc1)C(=O)NCC(=O)O", "note": "[Compound 13, MPUPA-(S)-Dap(Ac)-Gly-OH]", "values": [{"measurement": "ability to modulate α4β1 integrin-mediated cell adhesion (in words)", "setting": "α4β1 integrin [1]", "value": "submicromolar range"}, {"measurement": "IC50", "setting": "α4β1 integrin [1]", "value": "0.236 ± 0.047", "unit": "µM"}, {"measurement": "amount of intact peptide", "setting": "[3]", "value": "~91", "unit": "%"}]}
{"smiles": "CCCNC(=O)[C@@H](CC(=O)NCC(=O)O)NC(=O)Cc1ccc(NC(=O)Nc2ccccc2C)cc1", "note": "[Compound 12, MPUPA-(R)-isoAsp(NHPr)-Gly-OH]", "values": [{"measurement": "IC50", "setting": "α4β1 integrin [1]", "value": "0.0098 ± 0.0021", "unit": "µM"}, {"measurement": "amount of intact peptide", "setting": "[3]", "value": "around 80%"}]}
{"smiles": "Cc1ccccc1NC(=O)Nc1ccc(CC(=O)NC[C@@H](C)C(=O)NCC(=O)O)cc1", "note": "[Compound 10, MPUPA-β^2-homoAla-Gly-OH]", "values": [{"measurement": "ability to modulate α4β1 integrin-mediated cell adhesion (in words)", "setting": "α4β1 integrin [1]", "value": "not able to modulate α4β1 integrin-mediated cell adhesion to a significant extent"}, {"measurement": "IC50", "setting": "α4β1 integrin [1]", "value": "> 5", "unit": "µM"}]}
{"smiles": "Cc1ccccc1NC(=O)Nc1ccc(CC(=O)N2CC[C@H](C(=O)NCC(=O)O)C2)cc1", "note": "[Compound 6]", "values": [{"measurement": "IC50", "setting": "isolated α4β1 integrin", "value": 0.0083, "unit": "µM"}, {"measurement": "enzymatic stability (in words)", "setting": "[4]", "value": "good enzymatic stability"}, {"measurement": "IC50", "setting": "α4β1 integrin [5]", "value": 0.00504, "unit": "µM"}]}
{"smiles": "Cc1ccccc1NC(=O)Nc1ccc(CC(=O)NC[C@H](C)C(=O)NCC(=O)O)cc1", "note": "[Compound 9, MPUPA-β^2-homoAla-Gly-OH]", "values": [{"measurement": "ability to modulate α4β1 integrin-mediated cell adhesion (in words)", "setting": "α4β1 integrin [1]", "value": "not able to modulate α4β1 integrin-mediated cell adhesion to a significant extent"}, {"measurement": "IC50", "setting": "α4β1 integrin [1]", "value": "> 5", "unit": "µM"}]}
